Experimental data from patent US5523308A, “Peptidyl heterocycles useful in the treatment of thrombin related disorders” (priority 1995, dated 1996).
Read-outs that look alike come from different tables or passages of the source.

Tests used:
Bovine type 1 trypsin = biological target: T1, Bovine type 1 trypsin (Bos taurus, UniProt P00760); assay: Trypsin-catalyzed hydrolysis of chromogenic substrate Spectrozyme TRY (in vitro enzyme assay); type: biochemical; settings: 3.2 U/ml trypsin, 0.1-0.3 mM Spectrozyme TRY; read-out: Trp IC50
T1 construct: purchased Sigma
T1 sequence (P00760 24-246): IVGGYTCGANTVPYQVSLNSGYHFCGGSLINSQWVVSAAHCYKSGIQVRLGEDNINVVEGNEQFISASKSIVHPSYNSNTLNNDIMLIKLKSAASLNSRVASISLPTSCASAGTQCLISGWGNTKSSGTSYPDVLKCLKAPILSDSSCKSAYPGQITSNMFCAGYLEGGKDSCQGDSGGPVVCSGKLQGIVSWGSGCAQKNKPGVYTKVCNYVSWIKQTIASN
Protocol: The compounds of the invention were tested for their ability to inhibit thrombin mediated hydrolysis. An in vitro enzyme assay was performed as well as an ex vivo assay. In addition, the compounds were tested in vitro for their ability to inhibit trypsin, as an indication of their selectivity.
Trypsin-catalyzed hydrolysis rates were measured using the same method as the thrombin procedure.
The compound numbers in the table correspond to the examples described hereinafter.

[1] = Ex vivo i.v. assay for duration of action: time to half plasma elimination from thrombin inhibition in rat plasma; settings: male Long Evans rats, i.v. via femoral vein, from slope of Vo vs. time
Protocol: (§1) An ex vivo assay was conducted to determine the duration of action of the compounds of Formula I. For this i.v. assay male rats (Long Evans, 350-500 g) were implanted with a teflon cannulae via the femoral artery while under anesthesia (pentobarbital i.p., 35 mg/kg). […] The animals were allowed to recover for at least 24 h after the surgical procedure.
(§2) The test compound was dispersed in water and delivered to the animal (0.25 mL) via the femoral vein. […] A plasma sample was obtained by centrifuging the blood at 10,000 rpm for 5 min. This sample is analyzed for thrombin inhibition using the chromogenic assay, described below.
(§3) Datum was collected over a 30 min period and the initial rate of substrate hydrolysis (V0 (mOD/min)) was calculated with an analysis program (Softmax, Molecular Devices).
(§4) The time to half plasma elimination (t 1/2) was calculated from the slope of Vo vs. time, using the following equation: t 1/2=-1.6 slope.

human alpha-thrombin = biological target: T2, human alpha-thrombin (Homo sapiens, UniProt P00734); assay: Thrombin-catalyzed hydrolysis of chromogenic substrate Spectozyme TH (in vitro enzyme assay); type: biochemical; settings: 1 nM thrombin, 37° C., pH 7.4; for IC50: 50 μM Spectozyme TH, read-out: Thr IC50
T2 construct: commercial human alpha-thrombin (American Diagnostica); purchased American Diagnostica
Protocol: Thrombin-catalyzed hydrolysis rates were measured spectrophotometrically using commercial human alpha-thrombin (American Diagnostica), a chromogenic substrate (Spectozyme® TH (H-D-HHT-Ala-Arg-pNA.2AcOH), American Diagnostica) in aqueous buffer (10 mM Tris, 10 mM Hepes, 150 mM NaCl, 0.1% PEG; pH 7.4), and a microplate reader (Molecular Devices). Changes in absorbance at 405 nm were monitored (Softmax, Molecular Devices), upon addition of enzyme, both with and without inhibitor present at 37° C. over 30 minutes. […] Michaelis-Menton kinetics were applied to the initial reaction slopes. […] Michaelis-Menton kinetics were applied to the initial reaction slopes using the program K.Cat (Bio Metallics Inc.).

[2] = Ex vivo bioavailability assay, i.v. and p.o. dosing, thrombin inhibition in rat plasma; settings: male rats, p.o. vs i.v., extrapolated drug in plasma vs. time
Protocol: Bioavailability was determined by an ex vivo assay which incorporated hydrolysis rates from drug administered both i.v. and p.o. In this assay male rats were prepared as described above with a teflon tube implanted in their femoral artery. […] The test compound was dispersed in water (0.3-3.0 mg/mL final conc.) and delivered to the animals (0.25 mL) either i.v. or p.o..
A standard curve was generated by adding of drug or vehicle (100 μL) to whole blood (900 μL) followed by incubating (5 min) and centrifuging to obtain plasma. The percentage of thrombin inhibition was calculated by comparing the V0 of the vehicle to that of the drug treated samples. Datum from several runs were normalized with a statistical package (SAS) to generate a standard curve.
The percentage of thrombin inhibition in the treated animals was calculated by comparing the V0 prior to treatment with the V0 obtained from samples collected after treatment. The percent inhibition was applied to the standard curve (generated above) using the statistical package (SAS) and the quantity of drug in the sample was extrapolated.
Bioavailability (Bioavail.) was calculated from the plots of the extrapolated drug in sample vs. time for both i.v. and p.o. administration using the following equation:
%Bioavail. =(i.v. dose administered/p.o. dose administered)×(area under p.o. curve/area under curve i.v.)

[3] = rat, in vivo, iv
Protocol: as §1, §2, §3, §4

trypsin = settings: pancreatic agents quoted for comparison; read-out: IC50 (trypsin inhibitors used clinically); cited from earlier work

IC50 (Bovine type 1 trypsin) [nM]	t1/2 (time to half plasma elimination) [3] [min]	IC50 (human alpha-thrombin) [nM]	Compound	other results
3			CNC(C(=O)N1CCC[C@H]1C(=O)N[C@@H](CCCNC(=N)N)C(=O)c1nc2ccccc2s1)c1ccccc1 (single isomer, unassigned) [Compound 34]	t1/2 (time to half plasma elimination) [1]: 26 min
	19		CN[C@H](Cc1ccccc1)C(=O)N1CCC[C@H]1C(=O)N[C@@H](CCCNC(=N)N)C(=O)c1nc2ccccc2s1 [Compound 1, N-METHYL-D-PHENYLALANYL-N-[4-[(AMINOIMINOMETHYL)AMINO]-1S-[(BENXOTHIAZOL-2- YL)CARBONYL]BUTYL]-L-PROLINAMIDE]	Ki (human alpha-thrombin; 5-100 μM Spectozyme TH, read-out: Thr Ki (listed in place of the IC50)): 0.23 nM; Bioavail, [2]: 1.2%
6	16	19	CNC(Cc1ccccc1)C(=O)N1CCCC1C(=O)NC(CCCNC(=N)N)C(=O)c1nccs1 (stereo not drawn) [Compound 4]	
51	5	24	CNC(Cc1ccccc1)C(=O)N1CCCC1C(=O)NC(CCCNC(=N)N)C(=O)c1nc2ccccc2[nH]1 (stereo not drawn) [Compound 21]	
2	6	29	CN[C@H](Cc1c(F)c(F)c(F)c(F)c1F)C(=O)N1CCC[C@H]1C(=O)N[C@@H](CCCNC(=N)N)C(=O)c1nc2ccccc2s1 [Compound 30]	
2	11	201	CC(=O)N[C@H](Cc1ccccc1)C(=O)N1CCC[C@H]1C(=O)N[C@@H](CCCNC(=N)N)C(=O)c1nc2ccccc2s1.O=C(O)C(F)(F)F [Compound 35]	

Further lines, the compound ahead of its results:

Compound	IC50 (Bovine type 1 trypsin) [nM]	t1/2 (time to half plasma elimination) [3] [min]	IC50 (human alpha-thrombin) [nM]	other results
CCOC(=O)c1csc(C(=O)[C@H](CCCNC(=N)N)NC(=O)[C@@H]2CCCN2C(=O)[C@@H](Cc2ccccc2)NC)n1 [Compound 19, N-METHYL-D-PHENYLALANYL-N-[4-[(AMINOIMINOMETHYL)AMINO]-1S-[(4-ETHOXYCARBONY LTHIAZOL-2-YL)CARBONYL]BUTYL]-L-PROLINAMIDE]	5	14	26	
CN[C@H](Cc1ccccc1)C(=O)N1CCC[C@H]1C(=O)N[C@@H](CCCNC(=N)N)C(=O)c1nc2ccc(O)cc2s1 [Compound 25, N-METHYL-D-PHENYLALANYL-N-[4-[(AMINOIMINOMETHYL)AMINO]-1S-[(6-HYDROXYBENXOT HIAZOL-2-YL)CARBONYL]BUTYL]-L-PROLINAMIDE]				t1/2 (time to half plasma elimination) [1]: 14 min
CN[C@@H](C(=O)N1CCC[C@H]1C(=O)N[C@@H](CCCNC(=N)N)C(=O)c1nc2ccccc2s1)C1CCCCC1 [Compound 37, N-METHYL-D-CYCLOHEXYLGLYCYL-N-[4-[(AMINOIMINOMETHYL)AMINO]-1S-[(BENXOTHIAZO L-2-YL)CARBONYL]BUTYL]-L-PROLINAMIDE]	1	42		
CN[C@H](Cc1ccccc1)C(=O)N1CCC[C@H]1C(=O)N[C@@H](CCCNC(=N)N)C(=O)c1nc2c(s1)CCCC2 [Compound 51, N-METHYL-D-PHENYLALANYL-N-[4-[(AMINOIMINOMETHYL)AMINO]-1S-[(4,5,6,7-TETRAHY DROBENZOTHIAZOL-2-YL)CARBONYL]BUTYL]-L-PROLINAMIDE]	7	17	17	
CN[C@H](Cc1ccccc1)C(=O)N1CCC[C@H]1C(=O)N[C@@H](CCCNC(=N)N)C(=O)c1nc2ccc3ccccc3c2s1 [Compound 52, N-METHYL-D-PHENYLALANYL-N-[4-[(AMINOIMINOMETHYL)AMINO]-1S-[(NAPTHO[2,1-D]TH IAZOL-2-YL)CARBONYL]BUTYL]-L-PROLINAMIDE]	5	8		
CN[C@H](Cc1ccccc1)C(=O)N1CCC[C@H]1C(=O)N[C@@H](CCCNC(=N)N)C(=O)c1nc(C(=O)O)cs1 [Compound 54, N-METHYL-D-PHENYLALANYL-N-[4-[(AMINOIMINOMETHYL)AMINO]-1S-[(4-CARBOXYTHIAZO L-2-YL)CARBONYL]BUTYL]-L-PROLINAMIDE]	13	15	110	
CN(C)C(=O)COC(=O)Cc1ccc(OC(=O)c2ccc(NC(=N)N)cc2)cc1 [camostat mesilate]				IC50 (trypsin): 10 nM
N=C(N)c1ccc2cc(OC(=O)c3ccc(N=C(N)N)cc3)ccc2c1 [nafamostat]				IC50 (trypsin): 13 nM
